Laboratory results: patent publication US20120251492A1, “TRITERPENE DERIVATIVE AND AGENT FOR PREVENTING OR TREATING CHRONIC HEPATITIS C” (MEIJI SEIKA PHARMA CO., LTD., priority 2009, published 2012)
Like-named read-outs stand apart in the source and are kept apart here.

Legend:
[1] = tested on: HCV (Con1 Strain) replicon; experiment: microbe, parasite or virus in culture; format: cell-based, hepatitis C virus (HCV) Con1 strain, in Huh7 cells; details: read-out: IC50 Value (50% growth inhibitory concentration)
From the text: The compounds represented by the formula (I) were subjected to an HCV replicon assay and a cytotoxicity test.
In order to quantify the degree of HCV virus proliferation, a material was constructed by introducing a luciferase gene as a reporter gene into the genomic gene sequence of HCV Cont strain. The luciferase gene was introduced in the form of fusion with a neomycin-resistant gene, immediately after the IRES (Internal Ribosome Entry Site) of the HCV gene according to the method of Krieger et al., (J. Virol. 75: 4614 (2001)). The constructed RNA was introduced into Huh7 cells by electroporation, and isolated as G418 resistant clone.
The HCV replicon cells comprising the luciferase gene and the neomycin resistance gene were suspended in a culture liquid [D-MEM (SIGMA, D6046) containing 10% of fetal bovine serum (EQUITECH-BIO, INC.)], and seeded onto 96-well plates at 5000 to 8100 cells/well. Test compounds were added at various concentrations, and the cells were cultured under 5% CO2 at 37° C. for 3 days. For adding the test compounds, solutions of the test compounds dissolved in dimethyl sulfoxide (DMSO) were used, and diluted with the culture liquid to appropriate concentrations before use. The experiment was conducted with the final concentrations of DMSO used for dissolving the test compounds being 0.4% during the culturing of the replicon cells. To wells to which no test compound was added, DMSO was added with a final concentration of 0.4%.
Assay plates were prepared for two systems; one of the assays was conducted on a white plate, and the other was conducted on a clear plate. After the culturing for treatments with the test compounds was completed, the white plate was subjected to chemiluminescence measurement by using a Steady-Glo Luciferase Assay System (Promega, E2520) in order to detect effects on HCV replicon proliferation. A EnVision multilabel counter (PerkinElmer 2102) was used for the chemiluminescence measurement. While the value obtained when no test compound was added was taken as 0% inhibition, the inhibitory ratios by the treatments with the agents were calculated.
Regarding the HCV replicon assay, IC50s (50% growth inhibitory concentrations) of the agents were calculated, with the value obtained when no agent was added being taken as 0% inhibition.

[2] = Pharmacokinetics study in mice; format: in vivo; details: Balb/c mice, male, oral 20 mg/kg suspended in olive oil, LC-MS/MS; for AUC / Cmax / half-life: mouse, plasma; for AUC: read-out: AUC (area under the plasma drug concentration-time curve); for Cmax: read-out: Cmax (maximum plasma concentration); for half-life: read-out: t1/2 (plasma half-life) (converted)
Description: Balb/c mice (male, 7 to 8-week old) were used (3 or more mice per group). Each test compound suspended in olive oil was orally administered at 20 mg/kg, and blood was collected from the jugular vein after 2, 6, and 24 hours, or after 2, 4, 6, 8, 24, and 48 hours. The plasma drug concentration was measured by using a liquid chromatograph/mass spectrometry/mass spectrometry (LC-MS/MS). In addition, pharmacokinetics parameters were obtained from change in the obtained plasma concentration.

[3] = Hepatitis C virus, Huh-7, 72 h, HCV replicon cells (Huh7) with luciferase gene, cultured 3 days with test compound, 0.4% DMSO

## CC1(C)C[C@@H](OCc2ccc(C(=O)O)cc2)[C@]2(C)CC[C@]3(C)C(=CCC4[C@@]5(C)CC[C@H](O)[C@](C)(CO)C5CC[C@]43C)[C@@H]2C1 (stereo partly drawn) [Compound 1, 22β-(4-carboxybenzyloxy)olean-12-ene-3β,24-diol]
[1]; [3]
  IC50: 13.5 µM

## CC1(C)C[C@@H](OCCCO)[C@]2(C)CC[C@]3(C)C(=CCC4[C@@]5(C)CC[C@H](O)[C@](C)(CO)C5CC[C@]43C)[C@@H]2C1 (stereo partly drawn) [Compound 7, 22β-(3-hydroxypropoxy)olean-12-ene-3β,24-diol]
[1]; [3]
  IC50: 5.32 µM

## CC1(C)C[C@@H](OCCCOc2ccc(C(=O)O)cc2)[C@]2(C)CC[C@]3(C)C(=CCC4[C@@]5(C)CC[C@H](O)[C@](C)(CO)C5CC[C@]43C)[C@@H]2C1 (stereo partly drawn) [Compound 8, 22β-(3-(4-carboxyphenyl)oxypropoxy)olean-12-ene-3β,24-diol]
[1]; [3]
  IC50: 6.99 µM

## CC1(C)C[C@@H](OCc2ccc(CO)cc2)[C@]2(C)CC[C@]3(C)C(=CCC4[C@@]5(C)CC[C@H](O)[C@](C)(CO)C5CC[C@]43C)[C@@H]2C1 (stereo partly drawn) [Compound 3, 22β-(4-hydroxymethylbenzyloxy)olean-12-ene-3β,24-diol]
[1]; Hepatitis C virus, Huh-7, 72 h
  IC50: 1.56 µM

## CO[C@@H]1CC(C)(C)CC2C3=CCC4[C@@]5(C)CC[C@H](O)[C@](C)(C(=O)O)C5CC[C@@]4(C)[C@]3(C)CC[C@]21C (stereo partly drawn) [Compound 14, 3β-hydroxy-22β-methoxyolean-12-en-24-oic acid]
[1]; [3]
  IC50: 5.57 µM
[2]
  AUC: 81100 ± 18300 ng·h/mL
  Cmax: 4800 ± 1100 ng/mL
  half-life: 13.9 ± 1 h

## CC1(C)C[C@@H](OCc2ccc(CNc3ccccc3)cc2)[C@]2(C)CC[C@]3(C)C(=CCC4[C@@]5(C)CC[C@H](O)[C@](C)(CO)C5CC[C@]43C)[C@@H]2C1 (stereo partly drawn) [Compound 11, 22β-(4-phenylaminomethylbenzyloxy)olean-12-ene-3β,24-diol]
[1]; [3]
  IC50: 13 µM

## CC1(C)C[C@@H](OCc2ccccc2)[C@]2(C)CC[C@]3(C)C(=CCC4[C@@]5(C)CC[C@H](O)[C@](C)(C(=O)O)C5CC[C@]43C)[C@@H]2C1 (stereo partly drawn) [Compound 12, 22β-benzyloxyolean-12-ene-3β-hydroxy-24-oic acid]
[1]; [3]
  IC50: 5.54 µM
[2]
  AUC: 74700 ± 11000 ng·h/mL
  Cmax: 4800 ± 1100 ng/mL
  half-life: 11.9 ± 2.7 h

## CN(C)Cc1ccc(CO[C@@H]2CC(C)(C)C[C@H]3C4=CCC5[C@@]6(C)CC[C@H](O)[C@](C)(CO)C6CC[C@@]5(C)[C@]4(C)CC[C@@]23C)cc1 (stereo partly drawn) [Compound 10, 22β-(4-dimethylaminomethylbenzyloxy)olean-12-ene-3β,24-diol]
[1]; [3]
  IC50: 3.68 µM

## C=CCO[C@@H]1CC(C)(C)C[C@H]2C3=CCC4[C@@]5(C)CC[C@H](O)[C@](C)(C(=O)O)C5CC[C@@]4(C)[C@]3(C)CC[C@@]12C (stereo partly drawn) [Compound 13, 22β-allyloxyolean-12-ene-3β-hydroxy-24-oic acid]
[1]; [3]
  IC50: 7.05 µM
[2]
  AUC: 74900 ± 16300 ng·h/mL
  Cmax: 4800 ± 1500 ng/mL
  half-life: 13 ± 5.5 h

## C#CCO[C@@H]1CC(C)(C)C[C@H]2C3=CCC4[C@@]5(C)CC[C@H](O)[C@](C)(CO)C5CC[C@@]4(C)[C@]3(C)CC[C@@]12C (stereo partly drawn) [Compound 2, 22β-(2-propynyloxy)olean-12-ene-3β,24-diol]
[1]; [3]
  IC50: 5.73 µM
[2]
  AUC: 44700 ± 16300 ng·h/mL
  Cmax: 2800 ± 1000 ng/mL
  half-life: 10 ± 1.2 h

## CC1(C)C[C@@H](OCc2ccc(CN3CCOCC3)cc2)[C@]2(C)CC[C@]3(C)C(=CCC4[C@@]5(C)CC[C@H](O)[C@](C)(CO)C5CC[C@]43C)[C@@H]2C1 (stereo partly drawn) [Compound 9, 22β-(4-(4-morpholylmethyl)benzyloxy)olean-12-ene-3β,24-diol]
[1]; [3]
  IC50: 9.13 µM

## CO[C@@H]1CC(C)(C)C[C@H]2C3=CC[C@@H]4[C@@]5(C)CC[C@H](O)[C@](C)(CO)[C@@H]5CC[C@@]4(C)[C@]3(C)CC[C@@]12C [Compound 17, 22β-methoxyolean-12-ene-3β,24-diol, reference compound]
[1]; HCV replicon cells (Huh7) with luciferase gene, cultured 3 days with test compound, 0.4% DMSO
  IC50: > 20 µM
[2]
  AUC (area under the plasma drug concentration-time curve): 35600 ± 9700 ng·h/mL
  Cmax (maximum plasma concentration): 2600 ± 700 ng/mL
  t1/2 (plasma half-life): 7.4 ± 0.4 h

## CC1(C)C[C@@H](OCc2ccc(C=O)cc2)[C@]2(C)CC[C@]3(C)C(=CCC4[C@@]5(C)CC[C@H](O)[C@](C)(CO)C5CC[C@]43C)[C@@H]2C1 (stereo partly drawn) [Compound 4, 22β-(4-formylbenzyloxy)olean-12-ene-3β,24-diol]
[1]; [3]
  IC50: 3.59 µM
